Results as given in ChEMBL document CHEMBL1147850, “Conversion of some 2(3H)-furanones bearing a pyrazolyl group into other heterocyclic systems with a study of their antiviral activity” (2007).

How the values were obtained:
Type in all cases: functional
Design in all cases: scale not given: the % may be the effect or the level left
[1] = system: Hepatovirus A; experiment: Antiviral activity against HAV in Vero cells assessed as plaque infectivity reduction at 10 ug/ml
[2] = system: Hepatovirus A; experiment: Antiviral activity against HAV in Vero cells assessed as plaque infectivity reduction at 20 ug/ml
[3] = system: Human alphaherpesvirus 1; experiment: Antiviral activity against HSV1 in Vero cells assessed as plaque infectivity reduction at 20 ug/ml
[4] = system: Human alphaherpesvirus 1; experiment: Antiviral activity against HSV1 in Vero cells assessed as plaque infectivity reduction at 10 ug/ml

Compound `O=C(NNC(=O)c1ccccc1)/C(=C/c1cn(-c2ccccc2)nc1-c1ccccc1)CC(=O)c1ccc(Cl)cc1` has an Activity [1] of 30%, an Activity [2] of 60% and an Activity [3] of 38%. For the same compound, the Activity [4] was 10%.
For `O=C1OC(c2ccc(Cl)cc2)=C/C1=C\c1cn(-c2ccccc2)nc1-c1ccccc1`, the Activity [1] was 40%, the Activity [2] was 60% and the Activity [3] was 0%. For the same compound, the Activity [4] was 0%.
In the case of `O=C(C/C(=C\c1cn(-c2ccccc2)nc1-c1ccccc1)c1n[nH]c(=O)[nH]1)c1ccc(Cl)cc1`, the Activity [1] is reported as 0%, the Activity [2] is reported as 10% and the Activity [3] is reported as 14%. For the same compound, the Activity [4] was 0%.
In the case of `O=C(C/C(=C\c1cn(-c2ccccc2)nc1-c1ccccc1)c1n[nH]c(=S)[nH]1)c1ccc(Cl)cc1`, the Activity [1] is reported as 40%, the Activity [2] is reported as 50% and the Activity [3] is reported as 38%. It also gave an Activity [4] of 0%.
In the case of `COc1ccc(-c2cc(Cc3cn(-c4ccccc4)nc3-c3ccccc3)c(=O)[nH]n2)cc1`, the Activity [1] is reported as 20%, the Activity [2] is reported as 50% and the Activity [3] is reported as 47%. For the same compound, the Activity [4] was 21%.
In the case of `COc1ccc(C2=C/C(=C\c3cn(-c4ccccc4)nc3-c3ccccc3)C(=O)N2Cc2ccccc2)cc1`, the Activity [1] is reported as 0%, the Activity [2] is reported as 0% and the Activity [3] is reported as 45%. For the same compound, the Activity [4] was 23%.
`O=C(NCc1ccccc1)/C(=C/c1cn(-c2ccccc2)nc1-c1ccccc1)CC(=O)c1ccc(Cl)cc1` gave an Activity [1] of 40%, an Activity [2] of 60% and an Activity [3] of 23.8%. The Activity [4] was 4%.
Compound `O=C(C/C(=C\c1cn(-c2ccccc2)nc1-c1ccccc1)c1n[nH]c(=S)o1)c1ccc(Cl)cc1` has an Activity [1] of 0%, an Activity [2] of 0% and an Activity [3] of 45%. The Activity [4] was 14%.
`NNC(=O)/C(=C/c1cn(-c2ccccc2)nc1-c1ccccc1)CC(=O)c1ccc(Cl)cc1` gave an Activity [1] of 20%, an Activity [2] of 30% and an Activity [3] of 42.8%. For the same compound, the Activity [4] was 26%.
Work on `NC(=O)NNC(=O)/C(=C/c1cn(-c2ccccc2)nc1-c1ccccc1)CC(=O)c1ccc(Cl)cc1` yielded an Activity [1] of 0%, an Activity [2] of 20% and an Activity [3] of 52%. The Activity [4] was 42.8%.
